From patent US20100022491A1, “4-HYDROXY-2-OXO-2,3-DIHYDRO-1,3-BENZOTHIAZOL-7YL COMPOUNDS FOR MODULATION OF B2-ADRENORECEPTOR ACTIVITY” (ASTRAZENECA AB, priority 2006, published 2010) come the findings set out here.

Structures can show the parent of a compound that is named as a salt.

For the experiment, the target named is T1, recombinant human α1D receptor (Homo sapiens, UniProt P25100).
T1 construct: expressed in transfected cells; host or cells: HEK293
T1 sequence (P25100 1-572): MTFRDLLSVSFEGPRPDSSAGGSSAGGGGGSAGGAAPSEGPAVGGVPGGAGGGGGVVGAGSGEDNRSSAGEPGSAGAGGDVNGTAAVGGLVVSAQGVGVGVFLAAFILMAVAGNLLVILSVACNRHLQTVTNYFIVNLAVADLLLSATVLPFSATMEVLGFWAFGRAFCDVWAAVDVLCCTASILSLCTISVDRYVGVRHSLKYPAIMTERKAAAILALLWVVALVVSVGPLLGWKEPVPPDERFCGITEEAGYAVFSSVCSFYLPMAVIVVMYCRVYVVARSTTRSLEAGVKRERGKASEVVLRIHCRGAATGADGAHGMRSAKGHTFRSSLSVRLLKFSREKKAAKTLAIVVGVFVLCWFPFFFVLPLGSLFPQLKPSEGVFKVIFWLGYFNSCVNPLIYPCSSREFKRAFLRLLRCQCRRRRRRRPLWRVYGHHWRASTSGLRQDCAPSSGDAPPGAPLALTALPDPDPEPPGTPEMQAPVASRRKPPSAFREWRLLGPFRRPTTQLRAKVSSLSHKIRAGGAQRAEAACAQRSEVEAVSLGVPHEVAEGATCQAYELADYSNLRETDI
Kind of experiment: Adrenergic α1D selectivity binding assay ([3H]-prazosin). The following applies: inhibition of [3H]-prazosin (0.3 nM) binding, HEK293 membranes; for IC50: read-out: α1 bind pIC50 (converted). How it is done:
Membranes were prepared from human embryonic kidney 293 (HEK293) cells expressing recombinant human α1D receptor. These were diluted in Assay Buffer (50 mM HEPES, 1 mM EDTA, 0.1% gelatin, pH 7.4) to provide a final concentration of membranes that gave a clear window between maximum and minimum specific binding.
Assays were performed in U-bottomed 96-well polypropylene plates. 10 μL [^3H]-prazosin (0.3 nM final concentration) and 10 μL of test compound (10× final concentration) were added to each test well. For each assay plate 8 replicates were obtained for [^3H]-prazosin binding in the presence of 10 μL vehicle (10% (v/v) DMSO in Assay Buffer; defining maximum binding) or 10 μL BMY7378 (10 μM final concentration; defining non-specific binding (NSB)). Membranes were then added to achieve a final volume of 100 μL. The plates were incubated for 2 hours at room temperature and then filtered onto PEI coated GF/B filter plates, pre-soaked for 1 hour in Assay Buffer, using a 96-well plate Tomtec cell harvester. Five washes with 250 μL wash buffer (50 mM HEPES, 1 mM EDTA, pH 7.4) were performed at 4° C. to remove unbound radioactivity. The plates were dried then sealed from underneath using Packard plate sealers and MicroScint-O (50 μL) was added to each well. The plates were sealed (TopSeal A) and filter-bound radioactivity was measured with a scintillation counter (TopCount, Packard BioScience) using a 3-minute counting protocol.
Total specific binding (B0) was determined by subtracting the mean NSB from the mean maximum binding. NSB values were also subtracted from values from all other wells. […] Data was fitted to a four parameter logistic equation to determine the compound potency, which was expressed as pIC50 (negative log molar concentration inducing 50% inhibition of [^3H]-prazosin binding).

As to `O=C(CCNCCc1ccccc1)N(CCNCCc1ccc(O)c2[nH]c(=O)sc12)C1CCCC1` [Example 2, N-Cyclopentyl-N-(2-{[2-(4-hydroxy-2-oxo-2,3-dihydro-1,3-benzothiazol-7-yl)ethyl]amino}ethyl)-N^3-(2-phenylethyl)-β-alaninamide bis-trifluoroacetic acid salt], the IC50 is 126 nM. Regarding `CC(C)(C)CN(CCNCCc1ccc(O)c2[nH]c(=O)sc12)C(=O)CCNCCc1ccccc1` [Example 6, N-(2,2-Dimethylpropyl)-N-(2-{[2-(4-hydroxy-2-oxo-2,3-dihydro-1,3-benzothiazol-7-yl)ethyl]amino}ethyl)-N^3-(2-phenylethyl)-β-alaninamide bis-trifluoroacetic acid salt], the IC50 was 126 nM.

On to `CC(C)(C)CN(CCNCCc1ccc(O)c2[nH]c(=O)sc12)C(=O)CCNCCc1cccc(Cl)c1` [Example 7, N^3-[2-(3-Chlorophenyl)ethyl]-N-(2,2-dimethylpropyl)-N-(2-{[2-(4-hydroxy-2-oxo-2,3-dihydro-1,3-benzothiazol-7-yl)ethyl]amino}ethyl)-β-alaninamide bis-trifluoroacetic acid salt], for which the IC50 is 251 nM. In the case of `CC(C)(C)CN(CCNCCc1ccc(O)c2[nH]c(=O)sc12)C(=O)CCNCCc1ccc(Cl)cc1` [Example 8, N^3-[2-(4-Chlorophenyl)ethyl]-N-(2,2-dimethylpropyl)-N-(2-{[2-(4-hydroxy-2-oxo-2,3-dihydro-1,3-benzothiazol-7-yl)ethyl]amino}ethyl)-β-alaninamide bis-trifluoroacetic acid salt], the IC50 was 501 nM. On the same count and under the same terms, the result for `CC(C)(C)CN(CCNCCc1ccc(O)c2[nH]c(=O)sc12)C(=O)CCNCCc1ccc(Cl)c(Cl)c1` [Example 9, N^3-[2-(3,4-Dichlorophenyl)ethyl]-N-(2,2-dimethylpropyl)-N-(2-{[2-(4-hydroxy-2-oxo-2,3-dihydro-1,3-benzothiazol-7-yl)ethyl]amino}ethyl)-β-alaninamide bis-trifluoroacetic acid salt] reads 1000 nM. Same read-out and setting: the result for `C[C@H](CNCCC(=O)N(CCNCCc1ccc(O)c2[nH]c(=O)sc12)CC(C)(C)C)c1ccccc1` [Example 11, N-(2,2-Dimethylpropyl)-N-(2-{[2-(4-hydroxy-2-oxo-2,3-dihydro-1,3-benzothiazol-7-yl)ethyl]amino}ethyl)-N^3-[(2S)-2-phenylpropyl]-β-alaninamide bis-trifluoroacetic acid salt] reads 501 nM; that for `O=C(CCNCCc1cccc(Cl)c1)N(CCNCCc1ccc(O)c2[nH]c(=O)sc12)C1CCCCC1` [Example 12, N^3-[2-(3-Chlorophenyl)ethyl]-N-cyclohexyl-N-(2-{[2-(4-hydroxy-2-oxo-2,3-dihydro-1,3-benzothiazol-7-yl)ethyl]amino}ethyl)-β-alaninamide bis-trifluoroacetic acid salt], 200 nM. `O=C(CCNCCc1ccc(Cl)cc1)N(CCNCCc1ccc(O)c2[nH]c(=O)sc12)C1CCCCC1` [Example 13, N^3-[2-(4-Chlorophenyl)ethyl]-N-cyclohexyl-N-(2-{[2-(4-hydroxy-2-oxo-2,3-dihydro-1,3-benzothiazol-7-yl)ethyl]amino}ethyl)-β-alaninamide bis-trifluoroacetic acid salt]: the IC50 is 316 nM.

For the compound `Cc1cccc(CCNCCC(=O)N(CCNCCc2ccc(O)c3[nH]c(=O)sc23)C2CCCCC2)c1` [Example 14, N-Cyclohexyl-N-(2-{[2-(4-hydroxy-2-oxo-2,3-dihydro-1,3-benzothiazol-7-yl)ethyl]amino}ethyl)-N^3-[2-(3-methylphenyl)ethyl]-β-alaninamide bis-trifluoroacetic acid salt], the IC50 is 158 nM. In the case of `O=C(CCNCCc1cccc(F)c1)N(CCNCCc1ccc(O)c2[nH]c(=O)sc12)C1CCCCC1` [Example 15, N-Cyclohexyl-N^3-[2-(3-fluorophenyl)ethyl]-N-(2-{[2-(4-hydroxy-2-oxo-2,3-dihydro-1,3-benzothiazol-7-yl)ethyl]amino}ethyl)-β-alaninamide bis-trifluoroacetic acid salt], the “α1 bind pIC50” value was 6.7. Turning to `O=C(CCNCCc1ccc(F)cc1)N(CCNCCc1ccc(O)c2[nH]c(=O)sc12)C1CCCCC1` [Example 16, N-Cyclohexyl-N^3-[2-(4-fluorophenyl)ethyl]-N-(2-{[2-(4-hydroxy-2-oxo-2,3-dihydro-1,3-benzothiazol-7-yl)ethyl]amino}ethyl)-β-alaninamide bis-trifluoroacetic acid salt], the IC50 was 100 nM.

Take `O=C(CCNCCc1ccccc1Cl)N(CCNCCc1ccc(O)c2[nH]c(=O)sc12)C1CCCCC1` [Example 17, N^3-[2-(2-Chlorophenyl)ethyl]-N-cyclohexyl-N-(2-{[2-(4-hydroxy-2-oxo-2,3-dihydro-1,3-benzothiazol-7-yl)ethyl]amino}ethyl)-β-alaninamide bis-trifluoroacetic salt]: the IC50 is 50.1 nM. On the same count and under the same terms, the result for `O=C(CCNCCc1cccc(Cl)c1)N(CCNCCc1ccc(O)c2[nH]c(=O)sc12)C1CCOCC1` [Example 22, N^3-[2-(3-Chlorophenyl)ethyl]-N-(2-{[2-(4-hydroxy-2-oxo-2,3-dihydro-1,3-benzothiazol-7-yl)ethyl]amino}ethyl)-N-(tetrahydro-2H-pyran-4-yl)-β-alaninamide bis-trifluoroacetic acid salt] reads 251 nM. Consider `O=C(CCNCCc1ccccc1)N(CCNCCc1ccc(O)c2[nH]c(=O)sc12)C1CCCCCC1` [Example 23, N-Cycloheptyl-N-(2-{[2-(4-hydroxy-2-oxo-2,3-dihydro-1,3-benzothiazol-7-yl)ethyl]amino}ethyl)-N^3-(2-phenylethyl)-β-alaninamide bis-trifluoroacetic acid salt], for which the “α1 bind pIC50” value is 7.2. On to `O=C(CCNCCc1ccc(Cl)c(Cl)c1)N(CCNCCc1ccc(O)c2[nH]c(=O)sc12)C1CCOCC1` [Example 24, N^3-[2-(3,4-Dichlorophenyl)ethyl]-N-(2-{[2-(4-hydroxy-2-oxo-2,3-dihydro-1,3-benzothiazol-7-yl)ethyl]amino}ethyl)-N-(tetrahydro-2H-pyran-4-yl)-β-alaninamide bis-trifluoroacetic acid salt], for which the IC50 was 631 nM. Regarding `Cc1cccc(CCNCCC(=O)N(CCNCCc2ccc(O)c3[nH]c(=O)sc23)C2CCOCC2)c1` [Example 25, N-(2-{[2-(4-Hydroxy-2-oxo-2,3-dihydro-1,3-benzothiazol-7-yl)ethyl]amino}ethyl)-N^3-[2-(3-methylphenyl)ethyl]-N-(tetrahydro-2H-pyran-4-yl)-β-alaninamide bis-trifluoroacetic acid salt], the IC50 was 251 nM. Take `O=C(CCNCCc1ccc(Cl)cc1)N(CCNCCc1ccc(O)c2[nH]c(=O)sc12)C1CCOCC1` [Example 26, N^3-[2-(4-Chlorophenyl)ethyl]-N-(2-{[2-(4-hydroxy-2-oxo-2,3-dihydro-1,3-benzothiazol-7-yl)ethyl]amino}ethyl)-N-(tetrahydro-2H-pyran-4-yl)-β-alaninamide bis-trifluoroacetic acid salt]: the IC50 was 501 nM. The same measure, in the same setting: the result for `Cc1ccccc1CCNCCC(=O)N(CCNCCc1ccc(O)c2[nH]c(=O)sc12)C1CCOCC1` [Example 27, N-(2-{[2-(4-Hydroxy-2-oxo-2,3-dihydro-1,3-benzothiazol-7-yl)ethyl]amino}ethyl)-N^3-[2-(2-methylphenyl)ethyl]-N-(tetrahydro-2H-pyran-4-yl)-β-alaninamide bis-trifluoroacetic acid salt] reads 251 nM; that for `O=C(CCNCCc1ccc(Cl)cc1)N(CCNCCc1ccc(O)c2[nH]c(=O)sc12)C1CCCC1` [Example 28, N^3-[2-(4-Chlorophenyl)ethyl]-N-cyclopentyl-N-(2-{[2-(4-hydroxy-2-oxo-2,3-dihydro-1,3-benzothiazol-7-yl)ethyl]amino}ethyl)-β-alaninamide bis-trifluoroacetic acid salt], 316 nM.
